In brackets after ≈: the same amount, converted by molar mass. Read-outs that look alike come from different tables or passages of the source.
How the values were obtained:
TNF-α = test: Inhibition of TNF-α, zymosan air pouch model in mice (ELISA); type: in vivo; settings: i.p.
Description: The study of the inhibitory activity of TNF-α has been performed according to the method described by P. Klemen et al. (Europ. J. Pharmacol. 1995 281: 69-74), consisting of determining the production of TNF-α in the localised area where the inflammation is acute, specifically using the zymosan inflated air pouch model in mice. The TNF-α present in the inflammatory exudates produced in said pouch as a result of the stimulation with zymosan was determined. The analytical determination of TNF-α was performed by ELISA.

[1] = tested on: promoter of the human VEGF gene; test: Inhibition of the induction of VEGF: promoter-luciferase in transfected Caco-2 cells, TPA; type: cell-based; settings: TPA 16 hours, read-out: Inhibition of the induction of VEGF IC-50
From the text: This activity has been studied determining the inhibition of the induction of the expression of VEGF. The increased expression of vascular-endothelial growth factor (VEGF) has been related to tumour progression and angiogenesis. VEGF is a proangiogenic factor, promoting mitogenesis, migration and an increased vascular permeability of in vitro endothelial cells. It has been shown recently that COX-2 can regulate the angiogenesis process induced by colon cancer cells, increasing the expression of proangiogenic factors by said cells. Inhibition of COX-2 may block this process, inhibiting the expression of some of these factors, such as VEGF.
(§1) In order to study the antiangiogenic activity of the products with general formula (I), the expression of the VEGF promoter was studied in a basal and stimulated situation using the Caco-2 human colon carcinoma cell line, temporally transfected with a vector containing the promoter f the human VEGF gene. Once the test conditions were established the capability of the product studied to inhibit the expression of the VEGF and TF genes was studied by measuring the luciferase activity of their promoters.
In the test 1.25×10^5 Caco-2 cells were used temporally transfected with t corresponding DNA in 500 μl of DEMEM-10% FCS medium in 24 dimple plates. […]

MDAMB 453 = test: Cytotoxicity (XTT kit), mammary carcinoma cell line MDAMB 453; type: cell-based; settings: for IC50: read-out: IC-50 (cytotoxicity); for viability at 1 µM / viability at 20 µM / viability at 40 µM / viability at 60 µM / viability at 80 µM: MDA-MB-453, read-out: % Viability of mammary cancer cells ± SD
Description: The anti-tumoral activity of the compounds with general formula (I) was studied, determining their effect on a mammary carcinoma cell line (MDAMB 453). The cell line was cultured in a DMEM medium (Life Technologies) supplemented with 10% foetal bovine serum (Life Technologies) at 37° C. and 5% CO2.
(§2) Cytotoxicity tests were carried out using the XTT kit (Boehringer-Manheim) which measures the cell capability to metabolise a tetrazoyl salt to formazan.

NC59 = test: Cytotoxicity (XTT kit), human colon carcinoma cell line NC59; type: cell-based; settings: for IC50: read-out: IC-50 (cytotoxicity)
Description: (§3) The anti-tumoral activity of the compounds with general formula (I) was studied, determining their effect on cell lines of human colon carcinoma (TD 20 and NC 59). The two cell lines have the wild protein K-Ras. TD20 contains a mutation of the p53 suppressor gene, while NC59 has the p53 wild protein.
(§4) Both cell lines were cultured in a DMEM medium (Life Technologies) supplemented with 10% foetal bovine serum (Life Technologies) at 37° C. and 5% CO2.
as §2

TF = test: Inhibition of the induction of TF: promoter-luciferase in transfected Caco-2 cells, TPA; type: cell-based; settings: Homo sapiens, TPA 16 hours, read-out: Inhibition of the induction of TF IC-50
From the text: In turn, VEGF also induces the expression of Tissue Factor (TF) in monocyte membranes, epithelial cells and endothelium. Although the main function of TF is to initiate the coagulation cascade, it can transduce intracellular signals participating in metastasis and angiogenesis associated to tumours. TF facilitates in vivo growth of the tumour, favouring angiogenesis.
as §1
In the test 1.25×10^5 Caco-2 cells were used temporally transfected with t corresponding DNA in 500 μl of DEMEM-10% FCS medium in 24 dimple plates. The cells were pre-treated for 1 hour with the compounds to be tested, and later stimulated with TPA for 16 hours. Afterwards cell extracts were obtained and their luciferase activity examined, determining the protein concentration.

[2] = tested on: promoter of the gene COX-2; test: Inhibition of the induction of COX-2: stable transfectant JURKAT cells, COX-2 promoter-luciferase, TPA+ionomycine; type: cell-based; settings: Homo sapiens
TD 20 = test: Cytotoxicity (XTT kit), human colon carcinoma cell line TD20; type: cell-based; settings: for IC50: read-out: IC-50 (cytotoxicity)
Description: as §3, §4, §2

NC59 cells = test: Signal transduction paths associated to apoptosis in NC59 cells; type: cell-based, human; settings: 100 μM, 5 and 20 hours of exposure
Description: The signal transduction paths associated to the apoptosis process were then studied. After exposing NC59 cells to a 100 μM concentration of the compound of example 3, the expression levels were studied for p53, FAK and β-actine and the activation level of MAP kinases, JNK and PKB/Akt, after 5 and 20 hours of exposure.

TD20 = test: Induction of apoptosis in tumour cell line TD20; type: cell-based, human; settings: 100 μM
Description: In order to obtain a deeper knowledge of the action mechanism of these compounds the capability to induce apoptosis in the tumour cell line TD20 of the compound of example 3 was studied (dose 100 μM).

[3] = Homo sapiens, Colon carcinoma cell, read-out: % Viability of colorectal cancer cells ± SD
[4] = Homo sapiens, Colon carcinoma cell, 80 μM, read-out: % Viability of colorectal cancer cells ± SD
[5] = Homo sapiens, Colon carcinoma cell
[6] = Homo sapiens, Colon carcinoma cell, 30 μM, read-out: % Viability of colorectal cancer cells ± SD
[7] = Homo sapiens, Colon carcinoma cell, 100 μM, read-out: % Viability of colorectal cancer cells ± SD

CS(=O)(=O)c1ccc(C2CC(C(F)(F)F)=NN2c2ccc(F)cc2)cc1 (stereo not drawn) [Example 10]
% Inhibition of TNF-α in inflammatory exudate stimulated by zymosan (TNF-α; 0.039 mg/kg): 12.6 ± 2.6%
% Inhibition of TNF-α in inflammatory exudate stimulated by zymosan (TNF-α; 0.156 mg/kg): 15.7 ± 4.9%
% Inhibition of TNF-α in inflammatory exudate stimulated by zymosan (TNF-α; 0.625 mg/kg): 46.8 ± 12.5%
% Inhibition of TNF-α in inflammatory exudate stimulated by zymosan (TNF-α; 2.5 mg/kg): 58.8 ± 13.6%
DE-50, inhibition of TNF-α (TNF-α): DE-50 = 1.20 mg/kg, i.p.
IC50 [1]: 25 µg/mL (≈ 64.7 µM)
IC50 (MDAMB 453; Homo sapiens, MDA-MB-453, MDAMB 453): 18 µM
viability at 1 µM (MDAMB 453; Homo sapiens, MDAMB 453): 97.5 ± 3.25%
viability at 20 µM (MDAMB 453; Homo sapiens, MDAMB 453): 42.8 ± 9.31%
viability at 40 µM (MDAMB 453; Homo sapiens, MDAMB 453): 33.3 ± 7.34%
viability at 60 µM (MDAMB 453; Homo sapiens, MDAMB 453): 8.25 ± 6.82%
viability at 80 µM (MDAMB 453; Homo sapiens, MDAMB 453): 5.8 ± 4.76%
IC50 (MDAMB 453; MDAMB 453): 17.9 µM
viability at 1 µM (NC59; [3]): 92.1 ± 9.35%
viability at 20 µM (NC59; [3]): 76.1 ± 7.17%
viability at 40 µM (NC59; [3]): 15.8 ± 9.37%
viability at 60 µM (NC59; [3]): 2.59 ± 1.54%
viability at 80 µM (NC59; [4]): 1.66 ± 1.57%
IC50 (NC59; [5]): 27 µM
IC50 (NC59): 27.2 µM
IC50 (TF): 22 µg/mL (≈ 56.9 µM)
inhibition at 0.5 µg/mL ([2]; Clone C7, 0.5 μg/ml): 20%
inhibition at 5 µg/mL ([2]; Clone C7, 5 μg/ml): 55%
inhibition at 50 µg/mL ([2]; Clone C7, 50 μg/ml): 85%
IC50 ([2]; Clone C7, read-out: IC-50 (μg/ml), inhibition of luciferase activity): 5.8 µg/mL (≈ 15 µM)
inhibition at 0.5 µg/mL ([2]; Clone C9, 0.5 μg/ml): 40%
inhibition at 5 µg/mL ([2]; Clone C9, 5 μg/ml): 75%
inhibition at 50 µg/mL ([2]; Clone C9, 50 μg/ml): 85%
IC50 ([2]; Clone C9, read-out: IC-50 (μg/ml), inhibition of luciferase activity): 0.9 µg/mL (≈ 2.33 µM)
inhibition at 0.5 µg/mL ([2]; Clone F9, 0.5 μg/ml): 32%
inhibition at 5 µg/mL ([2]; Clone F9, 5 μg/ml): 65%
inhibition at 50 µg/mL ([2]; Clone F9, 50 μg/ml): 95%
IC50 ([2]; Clone F9, read-out: IC-50 (μg/ml), inhibition of luciferase activity): 1.8 µg/mL (≈ 4.66 µM)
viability at 1 µM (TD 20; [3]): 95 ± 8.87%
viability at 20 µM (TD 20; [3]): 90.2 ± 5.97%
viability at 40 µM (TD 20; [3]): 43.1 ± 13.8%
viability at 60 µM (TD 20; [3]): 5.42 ± 4.11%
viability at 80 µM (TD 20; [4]): 3.22 ± 3.46%
IC50 (TD 20; [5]): 38 µM
IC50 (TD 20): 37.9 µM

NS(=O)(=O)c1ccc(N2N=C(C(F)(F)F)CC2c2ccc(F)cc2F)cc1 (racemic) [Example 3, 1-(4-aminosulphonylphenyl)-5(2,4-difluorophenyl)-4,5-dihydro-3-trifluoromethyl-1H-pyrazol]
IC50 [1]: 20 µg/mL (≈ 49.3 µM)
viability at 1 µM (MDAMB 453; Homo sapiens, MDAMB 453): 94.8 ± 8.71%
viability at 20 µM (MDAMB 453; Homo sapiens, MDAMB 453): 31.5 ± 9.12%
viability at 40 µM (MDAMB 453; Homo sapiens, MDAMB 453): 12.8 ± 4.8%
viability at 60 µM (MDAMB 453; Homo sapiens, MDAMB 453): 5.97 ± 5.06%
viability at 80 µM (MDAMB 453; Homo sapiens, MDAMB 453): 2.84 ± 1.71%
viability at 1 µM (NC59; [3]): 99.64 ± 0.51%
viability at 20 µM (NC59; [3]): 76.5 ± 8.7%
viability at 30 µM (NC59; [6]): 56.5 ± 0.25%
viability at 40 µM (NC59; [3]): 16.7 ± 10.5%
viability at 60 µM (NC59; [3]): 1.16 ± 0.83%
viability at 100 µM (NC59; [7]): 0%
IC50 (NC59; [5]): 30 µM
IC50 (NC59): 29.9 µM
IC50 (TF): 25 µg/mL (≈ 61.7 µM)
signal transduction paths activated (p53, FAK, β-actine expression; MAP kinases, JNK, PKB/Akt activation) (NC59 cells): activation of signal transduction paths other than p53, JNK or p38
apoptotic cells (TD20; after 24 h): 20%
apoptotic cells (TD20; after 48 h): 80%
viability at 1 µM (TD 20; [3]): 98.6 ± 2.83%
viability at 20 µM (TD 20; [3]): 84.5 ± 3.05%
viability at 30 µM (TD 20; [6]): 66.3 ± 5.84%
viability at 40 µM (TD 20; [3]): 27.4 ± 4.12%
viability at 60 µM (TD 20; [3]): 1.79 ± 2.09%
viability at 100 µM (TD 20; [7]): 0.69 ± 0.01%
IC50 (TD 20; [5]): 34 µM
IC50 (TD 20): 33.9 µM

— US20040034082A1, “Utilization of pyrazoline derivatives in the preparation of a medicament for the prevention and/or treatment of proliferative cell diseases” (priority 2001, published 2004)
